Data set [1] deals with Mus musculus. Nature of the data set: Analgesic activity in acetic acid induced ICR mouse assessed as average writhing times at 6.25 mg/kg, iv administered for 15 mins followed by acetic acid injection and measured within 15 mins (reference value: 26.1 +/- 16.3). It is filed as functional. The conditions noted are these: time 30 min, 0.5 h.
Data set [2] has as its system Mus musculus. Nature of the data set: Analgesic activity in acetic acid induced ICR mouse assessed as average writhing times at 3.13 mg/kg, iv administered for 15 mins followed by acetic acid injection and measured within 15 mins (reference value: 26.1 +/- 16.3). It is filed as functional. The settings on record: time 30 min, 0.5 h.
A short description of data set [3]: Aqueous solubility of the compound.
Data set [4] deals with Mus musculus. Nature of the data set: Analgesic activity in acetic acid induced ICR mouse assessed as average writhing times at 12.50 mg/kg, iv administered for 15 mins followed by acetic acid injection and measured within 15 mins (reference value: 26.1 +/- 16.3). The settings on record: dose 12.5 mg/kg, time 30 min, 0.5 h. It is filed as functional.
Data set [5] concerns Mus musculus. Nature of the data set: Antinociceptive activity in acetic acid induced ICR mouse assessed as inhibition effect at 6.25 mg/kg, iv administered for 15 mins followed by acetic acid injection and measured within 15 mins. The conditions noted are these: 0.5 h, time 30 min. It is filed as functional.
Data set [6] concerns Mus musculus. Nature of the data set: Analgesic activity in acetic acid induced ICR mouse assessed as average writhing times at 25 mg/kg, iv administered for 15 mins followed by acetic acid injection and measured within 15 mins (reference value: 26.1 +/- 16.3). It is filed as functional. The settings on record: time 30 min, 0.5 h.
The species entered for the next data set is Rattus norvegicus. Nature of the data set: Antiinflammatory activity in carrageenan-induced Sprague-Dawley rat assessed as paw withdrawal threshold measured after 2.5 hrs by paw pressure test. It is filed as functional.
Data set [7] relates to Mus musculus. Nature of the data set: Antinociceptive activity in acetic acid induced ICR mouse assessed as inhibition effect at 25 mg/kg, iv administered for 15 mins followed by acetic acid injection and measured within 15 mins. It is filed as functional. The settings on record: 0.5 h, time 30 min.
Data set [8] relates to Mus musculus. Briefly: Antinociceptive activity in acetic acid induced ICR mouse assessed as inhibition effect at 3.13 mg/kg, iv administered for 15 mins followed by acetic acid injection and measured within 15 mins. It is filed as functional. The conditions noted are these: 0.5 h, time 30 min.
Data set [9] has as its system Mus musculus. Briefly: Antinociceptive activity in acetic acid induced ICR mouse assessed as inhibition effect at 12.50 mg/kg, iv administered for 15 mins followed by acetic acid injection and measured within 15 mins. It is filed as functional. The conditions noted are these: 0.5 h, time 30 min.
Data set [10] has as its system Mus musculus. Nature of the data set: Analgesic activity in iv dosed ICR mouse assessed as reduction in acetic acid induced writhing administered for 15 mins followed by acetic acid injection and measured within 15 mins. It is filed as functional. The settings on record: 0.5 h, time 30 min.

Structures are written as SMILES. Converted amounts (≈) assume the structure as drawn.

With `CC(C)Cc1ccc(C(C)C(=O)O)cc1` (stereo unspecified) [IBUPROFEN], the Activity came out at 6.1 in the data set with Mus musculus [1], 21 with Mus musculus [2], 4 in the data set on Mus musculus [4] and 3 with Mus musculus [6]. Further, the solubility in [3] came to 21.9 µg/mL (≈ 106 µM). For the same compound, in the data set on Mus musculus [5], the inhibition in vivo at 6.25 mg/kg stood at 76.6%. In addition, the figures for the ED50 in the data set filed under Rattus norvegicus and with Mus musculus [10] were 21 mg/kg and 5 mg/kg, respectively. Also, the inhibition in vivo at 25 mg/kg in the data set with Mus musculus [7] is 88.5%. The inhibition in vivo at 3.13 mg/kg in the data set with Mus musculus [8] is 19.5%. Moreover, the inhibition in vivo at 12.5 mg/kg in the data set with Mus musculus [9] amounted to 84.7%.

The values are drawn from ChEMBL document CHEMBL5154819 (Eur J Med Chem, 2022).
